Assay [1] relates to adult male Wistar rats. The assay can be described thus: water avoidance stress-induced visceral hyperalgesia model. The class given is in vivo, rat. The following applies: oral 3 μg/kg, FIG. 7f. How it is done:
(§1) The effect of SEQ ID NO:3 on basal visceral nociception in a model of water avoidance stress-induced visceral hyperalgesia in adult male Wistar rats was tested. The stress involved confining rats to a platform surrounded by water for a period of 1 hour and then measuring their visceromotor response to colonic distension using electromyography (EMG).
Electrode leads were then tunneled subcutaneously and externalized laterally for future access. Following surgery, rats were housed in pairs and allowed to recover for at least 7 days. On the day of the experiment, animals were lightly anesthetized with halothane, and a lubricated latex balloon (6 cm) was inserted intra-anally into the descending colon. Animals were allowed to recover for 30 minutes, and colorectal distension (CRD) was initiated. The CRD procedure consisted of graded intensities of phasic CRD (10, 20, 40, 60 mmHg; 20 s duration; 4 min inter-stimulus interval). Visceromotor response (VMR) to CRD was quantified by measuring EMG activity. […] Animals were allowed 1 hour recovery and then SEQ ID NO:3 or vehicle was orally administered. At 1 hour following administration of SEQ ID NO:3 or vehicle CRD was repeated. […]
To determine the effect of SEQ ID NO:3 in a model of water avoidance stress-induced visceral hyperalgesia, a baseline CRD was recorded and then the animals were subjected to 1 hour of water avoidance stress. […]

A further assay deals with mouse. The assay can be described thus: phenylbenzoquinone (PBQ)-induced writhing model. The following applies: oral; SEQ ID NO:5 1 mg/kg, SEQ ID NO:3 2.5 mg/kg; versus vehicle control, FIGS. 8a, 8b.
For assay [2], the system named is adult male Wistar rats. The assay can be described thus: basal visceral nociception (visceromotor response to CRD). In kind it is in vivo, rat. How it is done: as §1
Electrode leads were then tunneled subcutaneously and externalized laterally for future access. Following surgery, rats were housed in pairs and allowed to recover for at least 7 days. On the day of the experiment, animals were lightly anesthetized with halothane, and a lubricated latex balloon (6 cm) was inserted intra-anally into the descending colon. Animals were allowed to recover for 30 minutes, and colorectal distension (CRD) was initiated. The CRD procedure consisted of graded intensities of phasic CRD (10, 20, 40, 60 mmHg; 20 s duration; 4 min inter-stimulus interval). Visceromotor response (VMR) to CRD was quantified by measuring EMG activity. […] Animals were allowed 1 hour recovery and then SEQ ID NO:3 or vehicle was orally administered. At 1 hour following administration of SEQ ID NO:3 or vehicle CRD was repeated. […] The mean value (+/−SEM) of in vehicle and SEQ ID NO:3 treated groups (n=7 for each group) is graphically depicted in FIG. 7e.

Another assay has as its target T1, intestinal GC-C receptor (Homo sapiens, UniProt P25092).
T1 construct: monolayers of T84 cells in 24-well plates; host or cells: T84 human colon carcinoma cells
The assay can be described thus: intestinal GC-C receptor activity assay (cyclic GMP EIA) in T84 cells. Conditions: chemically synthesized peptides, FIGS. 2a and 2b. The class given is cell-based. How it is done: The ability of SEQ ID NO:5, SEQ ID NO:4, SEQ ID NO:3, and SEQ ID NO:6 to activate the intestinal GC-C receptor was assessed in an assay employing the T84 human colon carcinoma cell line (American Type Culture Collection (Bethesda, Md.)). For the assays cells were grown to confluency in 24-well culture plates with a 1:1 mixture of Ham's F12 medium and Dulbecco's modified Eagle's medium (DMEM), supplemented with 5% fetal calf serum and were used at between passages 54 and 60.
Briefly, monolayers of T84 cells in 24-well plates were washed twice with 1 ml/well DMEM, then incubated at 37° C. for 10 min with 0.45 ml DMEM containing 1 mM isobutylmethylxanthine (IBMX), a cyclic nucleotide phosphodiesterase inhibitor. Test peptides (50 μl) were then added and incubated for 30 minutes at 37° C. The media was aspirated and the reaction was then terminated by the addition of ice cold 0.5 ml of 0.1N HCl. The samples were held on ice for 20 minutes and then evaporated to dryness using a heat gun or vacuum centrifugation.

The next assay relates to Female CD rats. The assay can be described thus: ligated loop model in rats (cGMP, secretion). In kind it is in vivo. Conditions: center loop of the rat small intestine, 5 μg, FIG. 17b. The text has this: In the case of the rat, however four loops of intestine were surgically ligated. The first three loops were distributed equally in the small intestine and the fourth loop was located in colon. […] SEQ ID NO:3 increases cGMP levels and secretion in the center loop of the rat small intestine as shown in FIG. 17b (n=9-10 animal per group for secretion assays; n=7-8 animals for cGMP assays).

The test system of the next assay is suckling mice. The assay can be described thus: suckling mouse model of intestinal secretion (SuMi assay). The following applies: dose response, FIG. 5a, 5b. In kind it is in vivo. How it is done: In this model a test compound is administered to suckling mice that are between 7 and 9 days old. After the mice are sacrificed, the gastrointestinal tract from the stomach to the cecum is dissected (“guts”). The remains (“carcass”) as well as the guts are weighed and the ratio of guts to carcass weight is calculated. If the ratio is above 0.09, one can conclude that the test compound increases intestinal secretion. […] The effect of Zelnorm® was also studied.

Where a SMILES comes first, the peptide text is derived from it. Bridges are numbered along the chain shown (N, C = ends).

T1 sequence (P25092 24-1073): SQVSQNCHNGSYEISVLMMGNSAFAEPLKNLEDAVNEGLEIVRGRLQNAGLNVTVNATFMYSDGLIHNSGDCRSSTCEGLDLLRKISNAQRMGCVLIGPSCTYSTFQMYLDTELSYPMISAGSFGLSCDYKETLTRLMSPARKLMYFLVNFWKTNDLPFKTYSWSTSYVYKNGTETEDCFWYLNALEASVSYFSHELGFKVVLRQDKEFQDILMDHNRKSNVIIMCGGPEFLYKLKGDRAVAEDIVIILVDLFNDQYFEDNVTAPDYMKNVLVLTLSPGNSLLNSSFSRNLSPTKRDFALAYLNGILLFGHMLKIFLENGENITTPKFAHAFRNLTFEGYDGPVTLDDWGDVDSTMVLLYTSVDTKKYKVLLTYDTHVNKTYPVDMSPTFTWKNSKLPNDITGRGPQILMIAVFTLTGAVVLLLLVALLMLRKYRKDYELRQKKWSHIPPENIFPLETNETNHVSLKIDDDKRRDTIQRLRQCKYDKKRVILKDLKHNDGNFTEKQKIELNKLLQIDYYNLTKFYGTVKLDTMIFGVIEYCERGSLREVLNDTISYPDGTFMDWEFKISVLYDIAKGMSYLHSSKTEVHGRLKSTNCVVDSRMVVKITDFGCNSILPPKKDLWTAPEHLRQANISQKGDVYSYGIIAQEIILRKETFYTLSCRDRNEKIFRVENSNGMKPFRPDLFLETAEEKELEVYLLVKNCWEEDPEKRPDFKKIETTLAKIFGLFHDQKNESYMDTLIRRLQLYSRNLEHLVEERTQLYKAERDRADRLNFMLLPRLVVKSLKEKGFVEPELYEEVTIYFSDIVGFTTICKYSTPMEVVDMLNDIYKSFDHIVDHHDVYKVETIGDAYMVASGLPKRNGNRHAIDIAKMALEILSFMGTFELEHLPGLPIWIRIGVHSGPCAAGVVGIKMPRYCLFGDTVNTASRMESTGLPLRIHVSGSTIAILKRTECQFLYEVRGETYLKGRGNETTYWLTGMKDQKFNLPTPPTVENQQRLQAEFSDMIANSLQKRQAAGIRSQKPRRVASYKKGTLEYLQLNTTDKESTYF

For `C[C@@H]1NC(=O)[C@@H]2CCCN2C(=O)[C@H](CC(N)=O)NC(=O)[C@@H]2CSSC[C@H](N)C(=O)N[C@H]3CSSC[C@H](NC1=O)C(=O)N[C@@H]([C@@H](C)O)C(=O)NCC(=O)N[C@H](C(=O)N[C@@H](Cc1ccc(O)cc1)C(=O)O)CSSC[C@H](NC(=O)[C@H](Cc1ccc(O)cc1)NC(=O)[C@H](CCC(=O)O)NC3=O)C(=O)N2` [SEQ ID NO:3] (H-CCEYCCNPACTGCY-OH; disulfide 1-6, 2-10, 5-13; N-terminus and C-terminus assumed), in the assay on adult male Wistar rats [1], the “visceromotor response to CRD 24 hours after water avoidance stress” value was “exhibited anti-hyperalgesic properties”. Also, the writhings entry in the assay with mouse was “Significant reductions in writhings”. Also, the basal visceral nociception entry in the assay with adult male Wistar rats [2] (oral 3 μg/kg) is given as “no effects”. Besides, the basal visceral nociception entry in the assay on adult male Wistar rats [2] (oral 30 μg/kg, versus vehicle, FIG. 7e) is reported as “increased basal visceral nociception”. Besides, on intestinal GC-C receptor, the “activity in GC-C receptor activity assay” value was “activity comparable to SEQ ID NO:4”. For the same molecule, in the assay on Female CD rats, the “cGMP levels in ligated loop” value is “increases” and the “secretion in ligated loop” value is given as “increases”. Besides, the “intestinal secretion (ratio of guts to carcass weight)” value in the assay with suckling mice is recorded as “increase intestinal secretion”.

Values taken from US20090305993A1, “METHODS AND COMPOSITION FOR THE TREATMENT OF GASTROINTESTINAL DISORDERS” (IRONWOOD PHARMACEUTICALS, INC., priority 2006, published 2009).
